Results on four compounds are retold here after PMC7004565, “Nucleotide inhibition of the pancreatic ATP-sensitive K^+ channel explored with patch-clamp fluorometry” (eLife, 2020).

One assay concerns the target Kir6.2*,C166S-GFP + SUR1 (Homo sapiens, UniProt Q14654, C166S). The experiment in a line: Current inhibition in excised inside-out patches (patch-clamp fluorometry). For orientation: Patch clamp records ionic current or voltage across a cell membrane.
Assay [1] deals with T1, Kir6.2-GFP + SUR1 (Homo sapiens, UniProt Q14654). Described as above. The assay is classed as biochemical. Also on record: full length, fully ANAP-labelled Kir6.2 protein was produced and successfully trafficked to the membrane in the presence of SUR1; expressed in transfected cells; host or cells: HEK-293T. The procedure: (§1) Currents were measured from patches from cells expressing KATP that were excised in the absence of Mg^2+. Under such conditions, nucleotides can bind to both sites on SUR1, but no activation occurs, allowing inhibitory currents to be measured in isolation ([Gribble et al., 1998]; [Ueda et al., 1999]; [Puljung et al., 2019]).
Currents were measured as described above.

The target in a further assay is T2, Kir6.2-GFP (no SUR1) (Homo sapiens, UniProt Q14654).
T2 construct: ANAP labelling is specific and only full-length Kir6.2 is expressed at the cell membrane; expressed in transfected cells; host or cells: HEK-293T
T2 sequence (Q14654 1-390): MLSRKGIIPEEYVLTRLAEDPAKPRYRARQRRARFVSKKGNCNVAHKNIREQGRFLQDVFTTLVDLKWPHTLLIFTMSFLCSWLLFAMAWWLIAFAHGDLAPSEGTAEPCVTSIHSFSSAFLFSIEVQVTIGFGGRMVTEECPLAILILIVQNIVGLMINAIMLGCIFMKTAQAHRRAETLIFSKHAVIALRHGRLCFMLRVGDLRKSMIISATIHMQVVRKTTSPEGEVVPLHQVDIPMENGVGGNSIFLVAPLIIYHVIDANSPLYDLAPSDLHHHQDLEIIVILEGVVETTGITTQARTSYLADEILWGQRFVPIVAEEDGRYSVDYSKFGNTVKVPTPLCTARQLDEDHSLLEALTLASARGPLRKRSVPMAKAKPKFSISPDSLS
The experiment in a line: Current inhibition in excised inside-out patches. The assay is classed as biochemical. The procedure: as §1

Assay [2] addresses T1, Kir6.2-GFP + SUR1. The experiment in a line: Current inhibition in excised inside-out patches. Type of assay: biochemical. Also on record: ANAP labelling is specific and only full-length Kir6.2 is expressed at the cell membrane; expressed in transfected cells; host or cells: HEK-293T. On the procedure: as §1
Another assay relates to wild-type Kir6.2 + SUR1. More on the design: method as in Proks et al., 2010; Vedovato et al., 2015. The settings on record: MWC-type model, fits to published data; ref Proks et al., 2010; Vedovato et al., 2015; cited from earlier work.
In assay [3] the test system is second nucleotide binding site of SUR1. More on the design: method as in Puljung et al., 2019. The settings on record: ref Puljung et al., 2019, cited from earlier work.
Setting [4] is: excised patches, Hill fit with 1-Imax set to 0, n = 3.
The mark [5] stands for this setting: binding to stimulatory second nucleotide binding site of SUR1.

T1 sequence (Q09428 whole entry partner, one chain of several): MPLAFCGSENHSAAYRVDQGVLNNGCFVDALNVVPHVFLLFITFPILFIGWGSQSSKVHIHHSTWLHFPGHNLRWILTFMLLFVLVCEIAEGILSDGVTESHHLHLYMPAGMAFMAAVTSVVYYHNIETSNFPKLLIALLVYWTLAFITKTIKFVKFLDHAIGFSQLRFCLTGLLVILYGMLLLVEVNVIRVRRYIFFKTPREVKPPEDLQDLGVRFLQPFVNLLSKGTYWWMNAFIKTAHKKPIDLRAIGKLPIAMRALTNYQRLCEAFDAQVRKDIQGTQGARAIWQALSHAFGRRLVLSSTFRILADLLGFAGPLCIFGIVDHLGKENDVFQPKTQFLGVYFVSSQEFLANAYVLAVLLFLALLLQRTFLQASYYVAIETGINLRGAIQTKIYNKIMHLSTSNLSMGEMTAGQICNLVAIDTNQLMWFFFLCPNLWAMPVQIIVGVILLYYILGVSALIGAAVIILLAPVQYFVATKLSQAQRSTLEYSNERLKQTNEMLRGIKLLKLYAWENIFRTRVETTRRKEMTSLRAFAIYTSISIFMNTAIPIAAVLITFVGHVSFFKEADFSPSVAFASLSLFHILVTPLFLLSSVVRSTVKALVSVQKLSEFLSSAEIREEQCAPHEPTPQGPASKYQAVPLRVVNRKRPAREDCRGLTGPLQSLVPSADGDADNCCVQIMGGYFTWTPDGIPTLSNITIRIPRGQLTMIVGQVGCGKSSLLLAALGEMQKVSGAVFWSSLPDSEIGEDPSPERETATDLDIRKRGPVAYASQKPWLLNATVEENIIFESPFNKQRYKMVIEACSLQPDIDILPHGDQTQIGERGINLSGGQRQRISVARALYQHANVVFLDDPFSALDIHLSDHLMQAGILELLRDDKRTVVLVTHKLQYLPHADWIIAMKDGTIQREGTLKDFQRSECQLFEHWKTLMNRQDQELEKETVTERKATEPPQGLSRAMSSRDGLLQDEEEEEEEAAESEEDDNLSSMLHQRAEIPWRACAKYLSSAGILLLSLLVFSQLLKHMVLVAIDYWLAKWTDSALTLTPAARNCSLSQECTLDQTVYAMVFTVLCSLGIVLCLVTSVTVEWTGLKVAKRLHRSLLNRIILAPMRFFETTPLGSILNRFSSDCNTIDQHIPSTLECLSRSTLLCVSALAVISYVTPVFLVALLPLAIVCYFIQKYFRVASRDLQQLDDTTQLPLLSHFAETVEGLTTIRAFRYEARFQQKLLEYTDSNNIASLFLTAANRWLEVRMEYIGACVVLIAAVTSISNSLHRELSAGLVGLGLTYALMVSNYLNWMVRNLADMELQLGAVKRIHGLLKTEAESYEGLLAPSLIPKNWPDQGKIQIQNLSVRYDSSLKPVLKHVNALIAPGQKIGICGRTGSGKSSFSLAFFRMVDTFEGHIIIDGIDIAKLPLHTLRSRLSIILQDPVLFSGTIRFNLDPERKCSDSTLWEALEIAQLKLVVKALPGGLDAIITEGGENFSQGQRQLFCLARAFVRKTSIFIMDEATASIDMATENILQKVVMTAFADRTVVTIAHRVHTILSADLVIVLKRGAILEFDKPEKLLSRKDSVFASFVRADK
Chain of Kir6.2*,C166S-GFP + SUR1 (Q14654 whole entry C166S): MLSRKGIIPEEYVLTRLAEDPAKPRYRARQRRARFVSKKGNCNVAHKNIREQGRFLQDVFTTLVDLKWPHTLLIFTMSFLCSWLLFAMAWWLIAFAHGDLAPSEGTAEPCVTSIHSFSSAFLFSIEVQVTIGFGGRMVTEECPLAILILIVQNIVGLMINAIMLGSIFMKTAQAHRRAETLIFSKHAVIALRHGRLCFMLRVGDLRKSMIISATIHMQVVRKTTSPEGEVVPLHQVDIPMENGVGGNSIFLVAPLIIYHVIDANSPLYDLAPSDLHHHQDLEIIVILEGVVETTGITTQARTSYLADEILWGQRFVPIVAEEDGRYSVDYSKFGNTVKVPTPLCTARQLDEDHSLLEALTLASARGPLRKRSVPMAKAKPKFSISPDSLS
Chain of Kir6.2*,C166S-GFP + SUR1 (Q09428 whole entry partner): as the sequence (Q09428 whole entry partner, one chain of several) above

On to `Nc1ncnc2c1ncn2[C@@H]1O[C@H](COP(=O)(O)OP(=O)(O)OP(=O)(O)O)[C@@H](O)[C@H]1O` [ATP], for which the “current inhibition at 10 mM” value at Kir6.2*,C166S-GFP + SUR1 (10 mM ATP, excised patch) is on record as “only partial inhibition”. Also, the “h (Hill coefficient) current inhibition” value on Kir6.2-GFP + SUR1 [1] (excised inside-out patches, Mg2+-free, Hill fit) stood at 1.42; on Kir6.2-GFP (no SUR1) (excised inside-out patches, no SUR1, Mg2+-free, Hill fit), 1.15; on Kir6.2-GFP + SUR1 [2] (Mg2+-free, Hill fit), 1.28. Moreover, the D with wild-type Kir6.2 + SUR1 is reported as 0.03. For the same compound, in the assay on wild-type Kir6.2 + SUR1, the KA is 30000 M⁻¹.

What is called inhibition is the change of the read-out against control, counted positive when it falls. In the case of `CCCCNC(=O)NS(=O)(=O)c1ccc(C)cc1` [tolbutamide], the inhibition at 100 µM amounted to 57.7% at Kir6.2-GFP + SUR1 [1] (100 µM tolbutamide, excised inside-out patches, n = 4) and 46.5% on Kir6.2-GFP + SUR1 [2] (100 µM tolbutamide, n = 3). The “current inhibition by tolbutamide” value at Kir6.2-GFP (no SUR1) (100 µM tolbutamide, absence of SUR1, n = 5) is “not affected”.

Broadly, the IC50 is the concentration that gives 50% inhibition. As for `CCN(CC)CC` [triethylamine], the entries for the “h (Hill coefficient) current inhibition” value on Kir6.2*,C166S-GFP + SUR1 (setting [4]) and at Kir6.2-GFP + SUR1 [1] (setting [4]) were 1.12 and 0.87, respectively. The IC50 at Kir6.2-GFP + SUR1 [1] (excised patches, Hill fit with 1-Imax set to 0, n = 3, read-out: IC50 current inhibition) was determined as 63.1 mM.

What is called Kd is a measure of binding affinity in units of concentration. With MgTNP-ADP, in assay [3] (setting [5]), the KA is 58000 M⁻¹ and the equilibrium dissociation constant (Kd) is 17 µM. The “E (factor by which binding to SUR1 stabilised channel opening)” value in assay [3] (currents and binding measured in separate preparations) is reported as 2.2.
